Values of other authors, collected in patent US20260091056A1, “COMPOSITIONS FOR CONTROLLING ODOR AND ITCH AND METHODS OF AND DEVICES FOR ADMINISTERING SAME” (Vireo Systems, Inc., priority 2020, published 2026).

Details: at 25° C.

Substance: boric acid
- pKa value: ~9.14
